{"source": "patent US12116359B2", "about": "“EBNA1 inhibitor crystalline forms, and methods of preparing and using same” (THE WISTAR INSTITUTE, priority 2018, dated 2024)", "type_in_all_cases": "physicochemical", "key": {"[1]": {"assay": "Further stability experiments on crystalline forms (vacuum drying, grinding, storage)", "description": "Further experiments were carried out, involving heating, vacuum drying and/or grinding the materials in order to assess the stability of the solvated materials and the potential crystallization of an anhydrous form by desolvation."}, "[2]": {"assay": "Storage stability of solid forms at elevated temperature/humidity (XRPD, HPLC purity)", "description": "Purity analysis was performed on an Agilent HP1100 series system equipped with a diode array detector and using ChemStation software vB.04.03 using the method detailed in Table 1.\nAmorphous (I) free acid was stored at 40° C./75% RH (open vial), 25° C./97% RH (open vial) and 60° C. (closed vial, ambient humidity) for 8 weeks.\nCharacterization by XRPD, ^1H NMR, TGA, DSC and storage at 40° C./75% RH for one week was carried out. Details are found in Table 10."}, "[3]": {"assay": "Gravimetric vapour sorption (GVS)", "details": "for Hygroscopicity: GVS, 0-90% RH", "description": "Sorption isotherms were obtained using a SMS DVS Intrinsic moisture sorption analyzer, controlled by DVS Intrinsic Control software. The sample temperature was maintained at 25° C. by instrument controls. The humidity was controlled by mixing streams of dry and wet nitrogen, with a total flow rate of 200 ml/min. The relative humidity was measured by a calibrated Rotronic probe (dynamic range of 1.0-100% RH), located near the sample. The weight change (mass relaxation) of the sample as a function of % RH was constantly monitored by the microbalance (accuracy ±0.005 mg). Typically 5-20 mg of sample was placed in a tared mesh stainless steel basket under ambient conditions. The sample was loaded and unloaded at 40% RH and 25° C. (typical room conditions). A moisture sorption isotherm was performed as outlined below (2 scans giving 1 complete cycle). The standard isotherm was performed at 25° C. at 10% RH intervals over a 0-90% RH range. Data analysis was carried out using Microsoft Excel. The sample was recovered after completion of the isotherm and re-analyzed by XRPD."}, "[4]": {"assay": "Preliminary solubility assessment in solvents", "details": "RT", "description": "Amorphous (I) free acid (post washing, ca. 20 mg) was dissolved or suspended in a range of solvent systems (using 10 or 20 volumes) at RT. Solutions were placed in a fridge at 4° C. overnight. If no solid was obtained, the solution was then allowed to evaporate at RT. Suspensions were matured between RT-50° C. heat-cool cycles (8 h per cycle) for up to 7 days. Solids were analyzed by XRPD."}, "[5]": {"assay": "Storage stability of solid forms at elevated temperature/humidity (XRPD, HPLC purity)", "details": "4 weeks"}}, "note": "Entries after “also recorded” stand apart in the source; their conditions may differ. Read-outs that look alike come from different tables or passages of the source."}
{"smiles": "O=C(O)c1cccc(C#Cc2ccc(COC3CCOCC3)cc2)c1-c1ccc2cc[nH]c2c1", "note": "[Pattern 3, 2-(1H-Indol-6-yl)-3-[4-(tetrahydro-pyran-4-yloxymethyl)-phenylethynyl]-benzoic acid]", "values": [{"measurement": "Storage at 40° C./75% RH for 3.5 days", "setting": "[1]; 40° C./75% RH, 3.5 days, XRPD and 1H NMR", "result": "Unchanged by"}]}
{"smiles": "O=C(O)c1cccc(C#Cc2ccc(COC3CCOCC3)cc2)c1-c1ccc2cc[nH]c2c1", "note": "[Pattern 4, 2-(1H-Indol-6-yl)-3-[4-(tetrahydro-pyran-4-yloxymethyl)-phenylethynyl]-benzoic acid]", "values": [{"measurement": "Storage at 40° C./75% RH for 7 days", "setting": "[2]; 40° C./75% RH, 7 days, solid form by XRPD", "result": "Unchanged"}]}
{"smiles": "O=C(O)c1cccc(C#Cc2ccc(COC3CCOCC3)cc2)c1-c1ccc2cc[nH]c2c1", "note": "[Pattern 2, 2-(1H-Indol-6-yl)-3-[4-(tetrahydro-pyran-4-yloxymethyl)-phenylethynyl]-benzoic acid]", "values": [{"measurement": "Grinding and vacuum drying at 55° C.: solvent content", "setting": "[1]; 1H NMR, 0.5 eq. toluene as prepared", "result": 0.3, "unit": "eq. toluene"}, {"measurement": "Grinding and vacuum drying at 55° C.: crystallinity", "setting": "[1]; XRPD", "result": "significant loss of crystallinity; also recorded: Lower crystallinity"}, {"measurement": "Vacuum drying 40° C. or 55° C.", "setting": "[1]; solid form and solvent content by XRPD or 1H NMR", "result": "Unchanged by XRPD"}]}
{"smiles": "O=C(O)c1cccc(C#Cc2ccc(COC3CCOCC3)cc2)c1-c1ccc2cc[nH]c2c1", "note": "[Amorphous (I) free acid, 2-(1H-Indol-6-yl)-3-[4-(tetrahydro-pyran-4-yloxymethyl)-phenylethynyl]-benzoic acid]", "values": [{"measurement": "Hygroscopicity", "setting": "[3]", "result": "hygroscopic"}, {"measurement": "Hygroscopicity", "setting": "[3]; listed as main batch", "result": "hygroscopic"}, {"measurement": "XRPD after GVS", "setting": "[3]; after 0-90% RH isotherm, listed as (I) free acid amorphous material", "result": "0-90% RH with hysteresis. Unchanged by XRPD."}, {"measurement": "GVS moisture uptake", "setting": "[3]; between 0-90% RH, 25° C.", "result": "ca. 5.50%"}, {"measurement": "GVS reversible moisture uptake", "setting": "[3]; between 0-90% RH, 25° C.", "result": "5.5% w/w reversible moisture uptake between"}, {"measurement": "solubility", "setting": "[4]; 1,4-dioxane, organic solvent or mixture, thermodynamic from solid, 1,4-Dioxane, 10 vol, read-out: Solubility assessment 10 vol", "result": "> 100", "unit": "mg/mL"}, {"measurement": "solubility", "setting": "[4]; 2-propanol, organic solvent or mixture, thermodynamic from solid, 2-Propanol, 10 vol, read-out: Solubility assessment 10 vol", "result": "> 100", "unit": "mg/mL"}, {"measurement": "solubility", "setting": "[4]; acetone, organic solvent or mixture, thermodynamic from solid, Acetone, 10 vol, read-out: Solubility assessment 10 vol", "result": "> 100", "unit": "mg/mL"}, {"measurement": "solubility", "setting": "[4]; acetone/5% water, organic solvent or mixture, thermodynamic from solid, Acetone/5% water, 10 vol, read-out: Solubility assessment 10 vol", "result": "> 100", "unit": "mg/mL"}, {"measurement": "solubility", "setting": "[4]; acetonitrile, organic solvent or mixture, thermodynamic from solid, Acetonitrile, 10 vol, read-out: Solubility assessment 10 vol", "result": "> 100", "unit": "mg/mL"}, {"measurement": "solubility", "setting": "[4]; anisole, organic solvent or mixture, thermodynamic from solid, Anisole, 10 vol, read-out: Solubility assessment 10 vol", "result": "> 100", "unit": "mg/mL"}, {"measurement": "solubility", "setting": "[4]; dichloromethane, organic solvent or mixture, thermodynamic from solid, Dichloromethane, 10 vol, read-out: Solubility assessment 10 vol", "result": "> 100", "unit": "mg/mL"}, {"measurement": "solubility", "setting": "[4]; ethanol, organic solvent or mixture, thermodynamic from solid, Ethanol, 10 vol, read-out: Solubility assessment 10 vol", "result": "> 100", "unit": "mg/mL"}, {"measurement": "solubility", "setting": "[4]; ethanol/5% water, organic solvent or mixture, thermodynamic from solid, Ethanol/5% water, 10 vol, read-out: Solubility assessment 10 vol", "result": "> 100", "unit": "mg/mL"}, {"measurement": "solubility", "setting": "[4]; ethyl acetate, organic solvent or mixture, thermodynamic from solid, Ethyl Acetate, 10 vol, read-out: Solubility assessment 10 vol", "result": "> 100", "unit": "mg/mL"}, {"measurement": "solubility", "setting": "[4]; heptane, organic solvent or mixture, thermodynamic from solid, Heptane, 10 vol, read-out: Solubility assessment 10 vol", "result": "< 100", "unit": "mg/mL"}, {"measurement": "solubility", "setting": "[4]; heptane, organic solvent or mixture, thermodynamic from solid, Heptane, 20 vol, read-out: Solubility assessment 20 vol", "result": "< 50", "unit": "mg/mL"}, {"measurement": "solubility", "setting": "[4]; methanol, organic solvent or mixture, thermodynamic from solid, Methanol, 10 vol, read-out: Solubility assessment 10 vol", "result": "> 100", "unit": "mg/mL"}, {"measurement": "solubility", "setting": "[4]; methylethyl ketone, organic solvent or mixture, thermodynamic from solid, Methylethyl Ketone, 10 vol, read-out: Solubility assessment 10 vol", "result": "> 100", "unit": "mg/mL"}, {"measurement": "solubility", "setting": "[4]; methylisobutyl ketone (printed Methylisoburyl Ketone), organic solvent or mixture, thermodynamic from solid, Methylisoburyl Ketone, 10 vol, read-out: Solubility assessment 10 vol", "result": "> 100", "unit": "mg/mL"}, {"measurement": "solubility", "setting": "[4]; nitromethane, organic solvent or mixture, thermodynamic from solid, Nitromethane, 10 vol, read-out: Solubility assessment 10 vol", "result": "< 100", "unit": "mg/mL"}, {"measurement": "solubility", "setting": "[4]; nitromethane, organic solvent or mixture, thermodynamic from solid, Nitromethane, 20 vol, read-out: Solubility assessment 20 vol", "result": "< 50", "unit": "mg/mL"}, {"measurement": "solubility", "setting": "[4]; tetrahydrofuran, organic solvent or mixture, thermodynamic from solid, Tetrahydrofuran, 10 vol, read-out: Solubility assessment 10 vol", "result": "> 100", "unit": "mg/mL"}, {"measurement": "solubility", "setting": "[4]; toluene, organic solvent or mixture, thermodynamic from solid, Toluene, 10 vol, read-out: Solubility assessment 10 vol", "result": "< 100", "unit": "mg/mL"}, {"measurement": "solubility", "setting": "[4]; toluene, organic solvent or mixture, thermodynamic from solid, Toluene, 20 vol, read-out: Solubility assessment 20 vol", "result": "< 50", "unit": "mg/mL"}, {"measurement": "solubility", "setting": "[4]; water, thermodynamic from solid, Water, 10 vol, read-out: Solubility assessment 10 vol", "result": "< 100", "unit": "mg/mL"}, {"measurement": "solubility", "setting": "[4]; water, thermodynamic from solid, Water, 20 vol, read-out: Solubility assessment 20 vol", "result": "< 50", "unit": "mg/mL"}, {"measurement": "Decrease in chemical purity after storage", "setting": "[2]; 25° C./97% RH, 8 weeks", "result": "4.0 % (AUC)"}, {"measurement": "XRPD after storage at 25° C./97% RH for 8 weeks", "setting": "[2]; 25° C./97% RH, open vial, 8 weeks", "result": "completely amorphous trace by XRPD; also recorded: amorphous traces"}, {"measurement": "Purity by HPLC after storage at 25° C./97% RH for 8 weeks", "setting": "[2]; 25° C./97% RH, open vial, 8 weeks, initial purity 95.5% (AUC)", "result": "91.5 % (AUC)"}, {"measurement": "Purity by HPLC after storage at 25° C./97% RH for 8 weeks", "setting": "[2]; 25° C./97% RH, open vial, 8 weeks, initial purity 95.5% (AUC), listed as (I) free acid amorphous material", "result": "present. 91.5% (AUC) purity."}, {"measurement": "Decrease in chemical purity after storage", "setting": "[2]; 40° C./75% RH, 8 weeks", "result": "2.0 % (AUC)"}, {"measurement": "XRPD after storage at 40° C./75% RH for 8 weeks", "setting": "[2]; 40° C./75% RH, open vial, 8 weeks", "result": "unchanged by XRPD; also recorded: amorphous traces"}, {"measurement": "Purity by HPLC after storage at 40° C./75% RH for 8 weeks", "setting": "[2]; 40° C./75% RH, open vial, 8 weeks, initial purity 95.5% (AUC)", "result": "93.5 % (AUC)"}, {"measurement": "XRPD after storage at 40° C./75% RH for 8 weeks", "setting": "[2]; 40° C./75% RH, open vial, 8 weeks, listed as (I) free acid amorphous material", "result": "Unchanged by XRPD"}, {"measurement": "Decrease in chemical purity after storage", "setting": "[2]; 60° C., 8 weeks", "result": "1.1 % (AUC)"}, {"measurement": "XRPD after storage at 60° C. for 8 weeks", "setting": "[2]; 60° C., closed vial, ambient humidity, 8 weeks", "result": "unchanged by XRPD; also recorded: amorphous traces"}, {"measurement": "Purity by HPLC after storage at 60° C. for 8 weeks", "setting": "[2]; 60° C., closed vial, ambient humidity, 8 weeks, initial purity 95.5% (AUC)", "result": "94.4 % (AUC)"}, {"measurement": "XRPD after storage at 60° C. for 8 weeks", "setting": "[2]; 60° C., closed vial, ambient humidity, 8 weeks, listed as (I) free acid amorphous material", "result": "Unchanged by XRPD"}]}
{"smiles": "O=C(O)c1cccc(C#Cc2ccc(COC3CCOCC3)cc2)c1-c1ccc2cc[nH]c2c1", "note": "[Pattern 1, 2-(1H-Indol-6-yl)-3-[4-(tetrahydro-pyran-4-yloxymethyl)-phenylethynyl]-benzoic acid]", "values": [{"measurement": "XRPD after storage at 25° C./97% RH for 4 weeks", "setting": "[5]; listed as Crystalline (I)", "result": "remained unchanged by XRPD"}, {"measurement": "XRPD after storage at 25° C./97% RH for 4 weeks", "setting": "[5]; listed as crystalline batch", "result": "remained unchanged by XRPD"}, {"measurement": "XRPD after storage at 40° C./75% RH for 4 weeks", "setting": "[5]; listed as Crystalline (I)", "result": "remained unchanged by XRPD"}, {"measurement": "XRPD after storage at 40° C./75% RH for 4 weeks", "setting": "[5]; listed as crystalline batch", "result": "remained unchanged by XRPD"}, {"measurement": "XRPD after storage at 25° C./97% RH for 4 weeks", "setting": "[2]; 25° C./97% RH, 4 weeks", "result": "Unchanged by XRPD."}, {"measurement": "XRPD after storage at 40° C./75% RH for 4 weeks", "setting": "[2]; 40° C./75% RH, 4 weeks", "result": "Unchanged by XRPD."}]}
